Data taken from US20250263370A1 (Tay Therapeutics Limited, priority 2022, published 2025).

Experiments:
BRD4 BD1 = BRD4 BD1 (Homo sapiens (Human), UniProt O60885); experiment: NanoBRET bromodomain assay, NanoLuc-BRD4-BD1 fusion in HEK293 cells; type: cell-based; conditions: top concentration 10 μM
[1] = Intrinsic clearance in liver microsomes, mouse; type: in vitro ADME; conditions: pH 7.4, Method 2, read-out: Half-Life (T1/2) (min), Mouse
Description: From stock solution of compound on 10 mM DMSO, a working solution of 0.1 mM is prepared by diluting the compound in DMSO. 6.25 μL of a 20 mg/mL solution of microsomes in PBS pH 7.4 buffer is added to 216.25 μL PBS pH 7.4 buffer (final microsome concentration—0.5 mg/mL). 25 μL of 10 mM solution of NADPH in PBS pH 7.4 buffer is added to the incubations (final NADPH concentration—1 mM). The mixture is pre-warmed to 37° C. for 10 minutes. 2.5 μL of test compound working solution is added (final compound concentration—1 μM with 1% DMSO). Aliquots of 30 μL are taken from the reaction solution at 0.5, 5, 15, 30 and 60 minutes. The reaction was stopped by the addition of 5 volumes of cold acetonitrile with IS (100 nM alprazolam, 200 nM caffeine and 100 nM tolbutamide). Samples were centrifuged at 3, 220 g for 40 minutes. Aliquots of 100 μL of the supernatant are mixed with 100 μL of ultra-pure H2O and used for LC-MS/MS analysis. The percent compound remaining at each time point is calculated with respect to that of the 0.5 min sample. The data are analysed to calculate half-life. Control experiments are run without NADPH and blank samples are prepared using DMSO without the test compound.
A 50 mM stock solution (in DMSO) is prepared for the compound. From the stock solution, a working solution of 0.5 mM is prepared by diluting the compound in DMSO. This concentration of working solution is prepared considering a final concentration of 1 uM with 0.1% DMSO. The compound (1 μL of working solution) is spiked in PBS with pH 7.4 ([…]) at a concentration of 1 μM. Subsequently, 110 μL of 10 mM NADPH is added (as a co-factor). The sample is incubated at 37° C. for 15 min. Following this, pre-warmed liver microsomes (27.5 μL; final protein conc. 0.5 mg/mL) are added. The samples are then incubated at 37° C. Aliquots of samples are withdrawn at 0, 5, 15, 30, 45 and 60 min. The reaction is stopped by using chilled acetonitrile containing internal standard. The samples are centrifuged, and the supernatants analysed by LC-MS/MS. The percent compound remaining at each time point is calculated with respect to that of the 0 min sample. The data are then analysed to calculate half-life and intrinsic clearance (CLint). Control experiments are run without NADPH and blank samples are prepared using DMSO without the test compound.

BRD4 BD2 = BRD4 BD2 (Homo sapiens (Human), UniProt O60885); experiment: NanoBRET bromodomain assay, NanoLuc-BRD4-BD2 fusion in HEK293 cells; conditions: for IC50: BRD4 BD2 (IC50), NanoBRET, HEK293 cells, top concentration 10 μM; for Fold selectivity: IC50 for BRD4 BD1 divided by IC50 for BRD4 BD2, qualitative if an IC50 is at the upper limit;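 for all read-outs here: tracer displacement BRET read in transfected cells after 2 h compound exposure at 37 °C, signal in milliBRET units corrected against no-tracer background wells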

IC50 (BRD4 BD1) [µM] | half-life at 1 μM [1] [min] | IC50 (BRD4 BD2) [µM] | Fold selectivity (BRD4 BD2) | Compound
≥ 10 | > 60 | 0.2 to 1 | X (Fold >2 and ≤50) | CNC(=O)c1[nH]c(C(=O)NC2CC(F)(F)C2)cc1O[C@@H](C)c1ccccc1 [Example 109, (S)—N^5-(3,3-difluorocyclobutyl)-N^2-methyl-3-(1-phenylethoxy)-1H-pyrrole-2,5-dicarboxamide]
≥ 10 | > 60 | 0.05 to 0.2 | XX (Fold >50 and ≤200) | CNC(=O)c1[nH]c(C(=O)N[C@H]2CC[C@H](O)C2)cc1O[C@@H](C)c1ccccc1 [Example 115, N^5-((1S,3S)-3-hydroxycyclopentyl)-N^2-methyl-3-((S)-1-phenylethoxy)-1H-pyrrole-2,5-dicarboxamide]
≥ 10 | > 60 | 0.2 to 1 | X (Fold >2 and ≤50) | CNC(=O)c1[nH]c(C(=O)N[C@@H]2CCOC2)cc1O[C@@H](C)c1ccccc1 [Example 114, N^2-methyl-3-((S)-1-phenylethoxy)-N^5-((R)-tetrahydrofuran-3-yl)-1H-pyrrole-2,5-dicarboxamide]
≥ 10 | > 60 | 0.05 to 0.2 | XX (Fold >50 and ≤200) | CNC(=O)c1[nH]c(C(=O)NC2COC2)cc1O[C@@H](C)c1ccccc1 [Example 107, (S)—N^2-methyl-N^5-(oxetan-3-yl)-3-(1-phenylethoxy)-1H-pyrrole-2,5-dicarboxamide]
≥ 10 | > 60 | 0.05 to 0.2 | XX (Fold >50 and ≤200) | CNC(=O)c1[nH]c(C(=O)NC2CC2)cc1O[C@@H](C)c1ccccc1 [Example 106, (S)—N^5-cyclopropyl-N^2-methyl-3-(1-phenylethoxy)-1H-pyrrole-2,5-dicarboxamide]

The next lines start with the compound.

Compound | IC50 (BRD4 BD1) [µM] | half-life at 1 μM [1] [min] | IC50 (BRD4 BD2) [µM] | Fold selectivity (BRD4 BD2)
CNC(=O)c1[nH]c(C(=O)N[C@@H]2CC[C@@H](O)C2)cc1O[C@@H](C)c1ccccc1 (racemic) [Example 116, N^5-(trans-3-hydroxycyclopentyl)-N^2-methyl-3-((S)-1-phenylethoxy)-1H-pyrrole-2,5-dicarboxamide] | ≥ 10 | > 60 |  | XX (Fold >50 and ≤200)
CNC(=O)c1[nH]c(C(=O)N[C@H]2C[C@H](O)C2)cc1O[C@@H](C)c1ccccc1 [Example 108, N^5-(trans-3-hydroxycyclobutyl)-N^2-methyl-3-((S)-1-phenylethoxy)-1H-pyrrole-2,5-dicarboxamide] | ≥ 10 | > 60 | 0.05 to 0.2 | XX (Fold >50 and ≤200)
CNC(=O)c1[nH]c(C(=O)NC23CC(O)(C2)C3)cc1O[C@@H](C)c1ccccc1 [Example 118, (S)—N^5-(3-hydroxybicyclo [1.1.1]pentan-1-yl)-N^2-methyl-3-(1-phenylethoxy)-1H-pyrrole-2,5-dicarboxamide] | ≥ 10 | > 60 | 0.05 to 0.2 | XX (Fold >50 and ≤200)
